This is an account of results in patent EP0461869A2, “Chemotherapeutic agents” (MERCK & CO. INC., priority 1990, dated 1991).

pIC50: −log10 of the molar value. A value given as a limit tells only on which side of the number the result lay.

The target of test [1] is T1, Farnesyl-protein transferase from bovine brain (partially purified enzyme preparation) (Bos taurus, UniProt P29702+P49355).
T1 construct: the indicated compounds were incubated with this partially purified enzyme preparation; from tissue; host or cells: bovine brain; chromatographed on DEAE-Sephacel and N-octyl agarose
The test can be described thus: Competition of Ras farnesylation by polyisoprenoids and peptides (Hepes-buffered assay, immunoprecipitation and nitrocellulose filtration). Format: biochemical. The note with it: for pIC50: [Leu68]RAS1(term.)CVLS at 1 µM, 0.5 µM [3H]FPP, 10 min at 24° C, average of 2-5 determinations, >> = no competition at the highest concentration tested; for competition of the farnesylation reaction (in words): 0.5 µM [3H]FPP and 1 µM Ras.
Experimental: Enzyme reactions were analyzed by SDS-PAGE (sodium dodecyl sulfate/polyacrylamide gel electrophoresis) or immunoprecipitation. For gel analysis, each labeling reaction was boiled for 3 min in buffer containing 1% SDS/100 mM Tris-Cl, pH 6.8/10% glycerol/1% 2-mercaptoethanol, and loaded directly on 13.7% polyacrylamide gels. Radiolabeled Ras was visualized by autoradiography after fluorographic enhancement with Enlightning (New England Nuclear). For immunoprecipitation of radiolabelled Ras, reactions were first extracted with Triton X-114 using a modification of the procedure of Bordier (J. Biol. Chem. 256:1604-1607(1981). An aliquot (150 µl) of 1% Triton X-114 (Pierce) was added to the 50 µl reaction mix to achieve a final Triton X-114 concentration of 0.75%. Following 10 min. on ice, the tubes were transfered to a 37°C bath for 3 min. The cloudy solution was then centrifuged at 10,000 x g for 5 min. at room temperature. The upper aqueous phase was removed, and the detergent phase was diluted by the addition of 150 µl cold phosphate-buffed saline plus 150 µl of Ras monoclonal antibody Y13-259 coupled to Sepharose-protein A beads (Gutierrez et al. EMBO J. 8:1093-1098(1989) and Hancock et al. Cell 57:1167-1177(1989).
Farnesyl-protein transferase from bovine brain was chromatographed on DEAE-Sephacel (Pharmacia, 0-0.8 M NaCl gradient elution) and N-octyl agarose (Sigma, 0-0.6 M NaCl gradient elution). […] Reactions were analyzed by immunoprecipitation without the Triton X-114 extraction step followed by Nitrocellulose filtration.

The target in test [2] is bovine brain farnesylprotein transferase activity (Bos taurus, UniProt P29702+P49355). Briefly: Apparent Km estimation for farnesylation of Ras, varying [14C]FPP and [Leu61]Ha Ras concentration. Format: biochemical. The note with it: [14C]FPP varied 0.03-30 µM, [Leu61]Ha Ras varied 0.03-250 µM; estimated. How it is done:
Polyisoprenylation of Ras⁻ [³H]mevalonic acid (35 Ci/mmol) and [³H]farnesyl-PPi(FPP) FPP (20 Ci/mmol) were purchased from New England Nuclear. [¹⁴C]FPP (49.7 mCi/mmol) was prepared enzymatically from partially purified prenyl transferase, [4-¹⁴C]isopentyl-PPi (47.9 mCi/mmol, Amersham), and geranyl-PPi. Reactions contained 280 pmol (10 µCi) of [³H]mevalonic acid, 500 pmol (0.025 µCi) of [¹⁴C]FPP or 25 pmol (0.5 µci) of [³H]FPP. In a standard 50 µl reaction, 250 pmol of Ras purified from E. coli (Gibbs et al. Proc. Natl. Acad. Sci. USA 86:6630-6634(1989)) was added to 35 µl of rabbit reticulocyte lysate (Promega, L4210) or a tissue extract (100,00 x g supernatant, 10 mg/ml). Buffer conditions were adjusted by the addition of one-tenth volume of 500 mM Tris-Cl, pH 8.0/50 mM MgCl₂ or one-tenth volume of 500 mM NaHepes, pH 7.5/50 mM MgCl₂/50mM dithiothreitol. In the Tris-buffered assay, the reactions were incubated for 1 hour at 24°C. Reaction velocities in the Hepes buffered assays were at least four times greater, and incubations were for 10 minutes at 24°C. Tissue extracts were prepared as described previously [(ethylenebis(oxyethylenenitrilo)]tetra-acetic acid in buffer containing 50 mM Tris-Cl, pH 8.0/1 mM EGTA/1 mM MgCl₂/1 mM dithiothreitol/10 µl/ml aprotinin/0.5 mM phenylmethlysulfonyl fluoride. […]

In turn, `CC(C)=CCOP(=O)(O)OP(=O)(O)O` [Dimethylallyl-PPi] had a pIC50 in test [1] of 3.49.

As to `CC(C)=CCCC(C)=CCCC(C)=CCO` [Farnesol], in test [1], the “competition of the farnesylation reaction (in words)” value (shortened to “competition”) is “inactive” and the pIC50 was under 4.00.

In the case of `CC(C)=CCC/C(C)=C/CC/C(C)=C/COP(=O)(O)OP(=O)(O)O` [Farnesyl-PPi], in test [1], the “competition” value is “potently inhibited” and the pIC50 was 6.15. Moreover, the Km in test [2] is 0.3 µM.

`CC(C)=CCC/C(C)=C/COP(=O)(O)OP(=O)(O)O` [Geranyl-PPi] had a negative logarithm of the IC50 (pIC50) in test [1] of 4.17.

Regarding `CC(C)=CCC/C(C)=C/CC/C(C)=C/CC/C(C)=C/CO` [Geranylgeraniol], in test [1], the “competition” value was “inactive” and the negative-log IC50 (pIC50) is under 4.00.

For `CC(C)=CCC/C(C)=C/CC/C(C)=C/CC/C(C)=C/COP(=O)(O)OP(=O)(O)O` [Geranylgeranyl-PPi], in test [1], the “competition” value was “potently inhibited” and the pIC50 is 5.85.

As to “Cys-Val-Leu-Ser (CVLS; printed: Cys-Val-Leu-Ser)”, the pIC50 in test [1] was 5.66.

For S-(trans, trans) farnesyl-CVIM, the pIC50 in test [1] was 5.85.

In the case of S-(trans, trans) farnesyl-CVLS, the pIC50 in test [1] is 4.55.

In general, pIC50 refers to −log10 of the IC50, conventionally taken in molar units. High values mean a low IC50, low ones a high IC50. One may read the Km as the concentration of substrate that gives half-maximal velocity.
